In patent publication US6793839B1, “Cucurbiturils and method for synthesis” (Unisearch Limited, priority 1999, dated 2004):

Key:
[1] = uptake of carbon monoxide; format: binding
From the text: Accordingly, the invention further provides a method for removing carbon monoxide from a liquid or vapour containing carbon monoxide by contacting the liquid or vapour with cucurbit[5]uril.

[2] = solubility in acid and salt solutions; format: physicochemical; conditions: 0.1M Na2SO4 solution
From the text: All of the cucurbit[n]urils that have been observed are apparently soluble in acid solutions. Cucurbit[5 or 7 or 8 or 10]uril have been purified by successive recrystallisations from acid solutions. Because of the similar nature of the cucurbiturils, this is a slow process with more than 10 recrystallisations required to purify cucurbit[7]uril. As shown in the German patents cucurbit[6]uril can be obtained in a relatively pure state from a single recystallisation process.
The present invention provides a method for producing a range of cucurbit[n]urils and cucurbit[s,u]urils. The synthesis method results in the production of a number of cucurbit[n]urils and cucurbit[s,u]urils that have never before been produced or isolated. Separation is possible via chromatography and/or selective precipitation. The product cucurbit[n]urils and cucurbit[s,u]urils are stable to vigorous reaction conditions over a wide range of pH values. They are soluble in aqueous acid or aqueous salt solutions. The method gives cucurbiturils in much larger yields than previously possible. The use of templating compounds allows a degree of control over the relative amounts of the different cucurbit[n]urils being produced.

[3] = binding of dioxane in aqueous solutions
From the text: This dioxane binding properly can form the basis of processes for the removal of dioxane. According to a further aspect of the present invention, the present invention provides a process for removing dioxane from a fluid comprising contacting the fluid with cucurbit[6]uril and/or cucurbit[7]uril.

Row | binding of dioxane [3] | Compound | uptake of carbon monoxide [1] | dissolution in salt solution out of a mixture containing cucurbit[5-8]urils [2]
1 |  | O=C1N2CN3C(=O)N4CN5C(=O)N6CN7C(=O)N8CN9C(=O)N%10CN1C1C2N2CN%11C(=O)N(CN%12C(=O)N(CN%13C(=O)N(CN%14C(=O)N(CN1C2=O)C%10C9%14)C8C7%13)C6C5%12)C4C3%11 (centres unmarked) [cucurbit[5]uril] | has shown uptake of carbon monoxide | 
2 | bind dioxane | O=C1N2CN3C(=O)N4CN5C(=O)N6CN7C(=O)N8CN9C(=O)N%10CN%11C(=O)N%12CN1C1C2N2CN%13C(=O)N(CN%14C(=O)N(CN%15C(=O)N(CN%16C(=O)N(CN%17C(=O)N(CN1C2=O)C%12C%11%17)C%10C9%16)C8C7%15)C6C5%14)C4C3%13 (centres unmarked) [cucurbit[6]uril] |  | dissolving cucurbit[6 or 7]uril out of the complex mixture
3 | bind dioxane | cucurbit[7]uril |  | dissolving cucurbit[6 or 7]uril out of the complex mixture
